Source: PubChem BioAssay AID2060497 (Molecular Pharmacology Branch, DTP, NCI, 2025)
pIC50: −log10 of the molar value.

Test system: 317291-083-R-J1-PDC complex spheroids, viability
Test: Anticancer human tumor 317291-083-R-J1-PDC patient-derived soft tissue sarcoma cell line growth inhibition [GQUAD]
Settings: for pIC50: curve of first compound; for viability, T/C: stronger effect = lower value
Procedure, shortened: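 Multi-cell-type spheroids of tumor cells with HUVEC and mesenchymal stem cells, treated with drug combinations. Concentrations descend in half-log steps from near clinical Cmax, or from 10 microM where Cmax is unknown; viability read-out.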

[1] = second compound 0.0316 µM, first compound 0.0316 µM
[2] = second compound 0.0316 µM, first compound 0.316 µM
[3] = second compound 0.1 µM, first compound 0.0316 µM
[4] = second compound 0.1 µM, first compound 0.316 µM
[5] = second compound 0.316 µM, first compound 0.0316 µM
[6] = second compound 0.316 µM, first compound 0.316 µM
[7] = second compound 1 µM, first compound 0.0316 µM
[8] = second compound 1 µM, first compound 0.316 µM
[9] = second compound 3.16 µM, first compound 0.0316 µM
[10] = second compound 3.16 µM, first compound 0.316 µM
[11] = second compound 10 µM, first compound 0.0316 µM
[12] = second compound 10 µM, first compound 0.316 µM
[13] = second compound 0.0316 µM, first compound 0.000999 µM
[14] = second compound 0.0316 µM, first compound 0.00316 µM
[15] = second compound 0.0316 µM, first compound 0.00999 µM
[16] = second compound 0.0316 µM, first compound 0.0999 µM
[17] = second compound 0.1 µM, first compound 0.000999 µM
[18] = second compound 0.1 µM, first compound 0.00316 µM
[19] = second compound 0.1 µM, first compound 0.00999 µM
[20] = second compound 0.1 µM, first compound 0.0999 µM
[21] = second compound 0.316 µM, first compound 0.000999 µM
[22] = second compound 0.316 µM, first compound 0.00316 µM
[23] = second compound 0.316 µM, first compound 0.00999 µM
[24] = second compound 0.316 µM, first compound 0.0999 µM
[25] = second compound 1 µM, first compound 0.000999 µM
[26] = second compound 1 µM, first compound 0.00316 µM
[27] = second compound 1 µM, first compound 0.00999 µM
[28] = second compound 1 µM, first compound 0.0999 µM
[29] = second compound 3.16 µM, first compound 0.000999 µM
[30] = second compound 3.16 µM, first compound 0.00316 µM
[31] = second compound 3.16 µM, first compound 0.00999 µM
[32] = second compound 3.16 µM, first compound 0.0999 µM
[33] = second compound 10 µM, first compound 0.000999 µM
[34] = second compound 10 µM, first compound 0.00316 µM
[35] = second compound 10 µM, first compound 0.00999 µM
[36] = second compound 10 µM, first compound 0.0999 µM
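Note: spheroids exposed to compounds for one week before readout.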
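Throughout, for viability, T/C: percent viability relative to DMSO vehicle wells taken as 100%.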

## CC(=O)O[C@H]1C(=O)[C@@]2(C)[C@H]([C@H](OC(=O)c3ccccc3)[C@]3(O)C[C@H](OC(=O)[C@H](O)[C@@H](NC(=O)c4ccccc4)c4ccccc4)C(C)=C1C3(C)C)[C@]1(OC(C)=O)CO[C@@H]1C[C@@H]2O + Cc1[nH]c2ccc(F)cc2c1-c1nc2c3cccnc3c3ncccc3c2[nH]1
Second compound 0.0316 µM
  pIC50: > 7.50
Second compound 0.1 µM
  pIC50: > 7.50
Second compound 0.316 µM
  pIC50: > 7.50
Second compound 1 µM
  pIC50: > 7.50
Second compound 3.16 µM
  pIC50: > 7.50
Second compound 10 µM
  pIC50: > 7.50
[1]
  viability, T/C: 45.6%
Second compound 0.0316 µM, first compound 0.1 µM
  viability, T/C: 19.7%
[2]
  viability, T/C: 15.5%
Second compound 0.0316 µM, first compound 1 µM
  viability, T/C: 16.5%
Second compound 0.0316 µM, first compound 3.16 µM
  viability, T/C: 13.9%
Second compound 0.0316 µM, first compound 10 µM
  viability, T/C: 12.1%
[3]
  viability, T/C: 46.6%
Second compound 0.1 µM, first compound 0.1 µM
  viability, T/C: 21.5%
[4]
  viability, T/C: 12.2%
Second compound 0.1 µM, first compound 1 µM
  viability, T/C: 17.6%
Second compound 0.1 µM, first compound 3.16 µM
  viability, T/C: 15.1%
Second compound 0.1 µM, first compound 10 µM
  viability, T/C: 16.6%
[5]
  viability, T/C: 40%
Second compound 0.316 µM, first compound 0.1 µM
  viability, T/C: 18.9%
[6]
  viability, T/C: 16.8%
Second compound 0.316 µM, first compound 1 µM
  viability, T/C: 15.3%
Second compound 0.316 µM, first compound 3.16 µM
  viability, T/C: 13.7%
Second compound 0.316 µM, first compound 10 µM
  viability, T/C: 16.1%
[7]
  viability, T/C: 32.9%
Second compound 1 µM, first compound 0.1 µM
  viability, T/C: 18%
[8]
  viability, T/C: 17.2%
Second compound 1 µM, first compound 1 µM
  viability, T/C: 17.7%
Second compound 1 µM, first compound 3.16 µM
  viability, T/C: 16.1%
Second compound 1 µM, first compound 10 µM
  viability, T/C: 12.7%
[9]
  viability, T/C: 20.1%
Second compound 3.16 µM, first compound 0.1 µM
  viability, T/C: 11%
[10]
  viability, T/C: 12.4%
Second compound 3.16 µM, first compound 1 µM
  viability, T/C: 11.6%
Second compound 3.16 µM, first compound 3.16 µM
  viability, T/C: 10.7%
Second compound 3.16 µM, first compound 10 µM
  viability, T/C: 8.8%
[11]
  viability, T/C: 27%
Second compound 10 µM, first compound 0.1 µM
  viability, T/C: 17.1%
[12]
  viability, T/C: 15.2%
Second compound 10 µM, first compound 1 µM
  viability, T/C: 14.7%
Second compound 10 µM, first compound 3.16 µM
  viability, T/C: 12.7%
Second compound 10 µM, first compound 10 µM
  viability, T/C: 12.5%

## Cn1ncnc1[C@H]1c2n[nH]c(=O)c3cc(F)cc(c23)N[C@@H]1c1ccc(F)cc1 + Cc1cnc(CNC(=O)c2c(=O)c3ccc(N4CCCN(C)CC4)nc3n3c2sc2ccccc23)cn1
Second compound 0.0316 µM
  pIC50: 6.61
Second compound 0.1 µM
  pIC50: 7.62
Second compound 0.316 µM
  pIC50: > 9.00
Second compound 1 µM
  pIC50: > 9.00
Second compound 3.16 µM
  pIC50: > 9.00
Second compound 10 µM
  pIC50: > 9.00
[13]
  viability, T/C: 88.6%
[14]
  viability, T/C: 106%
[15]
  viability, T/C: 75.6%
[1]
  viability, T/C: 74%
[16]
  viability, T/C: 59.8%
[2]
  viability, T/C: 46.8%
[17]
  viability, T/C: 73.8%
[18]
  viability, T/C: 74.7%
[19]
  viability, T/C: 49.7%
[3]
  viability, T/C: 50.4%
[20]
  viability, T/C: 37.9%
[4]
  viability, T/C: 25.3%
[21]
  viability, T/C: 46.1%
[22]
  viability, T/C: 42.7%
[23]
  viability, T/C: 41.2%
[5]
  viability, T/C: 25.5%
[24]
  viability, T/C: 36.7%
[6]
  viability, T/C: 24.2%
[25]
  viability, T/C: 32.2%
[26]
  viability, T/C: 35.5%
[27]
  viability, T/C: 31.4%
[7]
  viability, T/C: 21.1%
[28]
  viability, T/C: 24.3%
[8]
  viability, T/C: 23.9%
[29]
  viability, T/C: 17.3%
[30]
  viability, T/C: 13.4%
[31]
  viability, T/C: 16.9%
[9]
  viability, T/C: 17.2%
[32]
  viability, T/C: 20.3%
[10]
  viability, T/C: 12.7%
[33]
  viability, T/C: 41%
[34]
  viability, T/C: 35.4%
[35]
  viability, T/C: 25.4%
[11]
  viability, T/C: 34.6%
[36]
  viability, T/C: 29.9%
[12]
  viability, T/C: 25.4%

## CC[C@@]1(O)C(=O)OCc2c1cc1n(c2=O)Cc2cc3c(CN(C)C)c(O)ccc3nc2-1 + CN(C)c1ccc(Nc2c3ccc(NC(=O)CCN4CCCC4)cc3nc3cc(NC(=O)CCN4CCCC4)ccc23)cc1
Second compound 0.0316 µM
  pIC50: 7.26
Second compound 0.1 µM
  pIC50: 7.30
Second compound 0.316 µM
  pIC50: 7.59
Second compound 1 µM
  pIC50: > 9.00
Second compound 3.16 µM
  pIC50: > 9.00
Second compound 10 µM
  pIC50: > 9.00
[13]
  viability, T/C: 99.5%
[14]
  viability, T/C: 98.3%
[15]
  viability, T/C: 109%
[1]
  viability, T/C: 70.3%
[16]
  viability, T/C: 29%
[2]
  viability, T/C: 16.7%
[17]
  viability, T/C: 95%
[18]
  viability, T/C: 85.4%
[19]
  viability, T/C: 94%
[3]
  viability, T/C: 65.5%
[20]
  viability, T/C: 26.9%
[4]
  viability, T/C: 15.9%
[21]
  viability, T/C: 79.8%
[22]
  viability, T/C: 90.8%
[23]
  viability, T/C: 74.7%
[5]
  viability, T/C: 42.6%
[24]
  viability, T/C: 28.9%
[6]
  viability, T/C: 14.9%
[25]
  viability, T/C: 49%
[26]
  viability, T/C: 42.6%
[27]
  viability, T/C: 48.5%
[7]
  viability, T/C: 36.7%
[28]
  viability, T/C: 18.1%
[8]
  viability, T/C: 9.13%
[29]
  viability, T/C: 28.4%
[30]
  viability, T/C: 24.1%
[31]
  viability, T/C: 22.8%
[9]
  viability, T/C: 15.4%
[32]
  viability, T/C: 11.5%
[10]
  viability, T/C: 9.22%
[33]
  viability, T/C: 9.99%
[34]
  viability, T/C: 16.1%
[35]
  viability, T/C: 5.13%
[11]
  viability, T/C: 5.79%
[36]
  viability, T/C: 8.35%
[12]
  viability, T/C: 4.27%
